According to US20250213534A1, “5-METHOXY-N,N-[…][…] THE TREATMENT OF COGNITIVE DYSFUNCTION” (GH RESEARCH IRELAND LIMITED, priority 2022, published 2025):

Tests used:
[1] = test system: patients with postpartum depression (PPD); test: Clinical trial of 5-MeO-DMT via inhalation (individualized dosing regimen) in postpartum depression; conditions: n=1
Method: The single-arm, open-label clinical trial will involve 15 adult female patients with clinically diagnosed postpartum depression (PPD).
The second dose (12 mg) will only be administered if: • a. A peak experience (total score of ⋅75) has not been achieved following the 6 mg dose, and • b. The 6 mg dose was safe and well-tolerated according to the investigator, • c. Any psychoactive effects (PsE) of the prior dose have subsided, and • d. Pre-dose vital parameters and forced expiratory volume in one second (FEV1) are in normal range, or if outside of the normal range, are not clinically significant according to the investigator. • 3. Similarly, a third dose (18 mg) will only be administered if: • a. A peak experience (total score of ⋅75) has not been achieved following the 12 mg dose, and • b. The 12 mg dose was safe and well-tolerated according to the investigator, and • c. Any PsE of the prior dose have subsided, and • d. Pre-dose vital parameters and forced expiratory volume in one second (FEV1) are in normal range, or if outside of the normal range, are not clinically significant according to the investigator.
The patients will be assessed for a peak psychedelic experience (based on a patient-scored visual analogue scale, the PE scale), sedation, and other endpoints after dosing. Follow-up visits are planned for Day 1, and Day 7 after the dosing day.
The following criteria must be met by all patients considered for clinical trial participation: • 1. Is female and in the age range between 18 and 45 years (inclusive) at screening. • 2. Has a body mass index (BMI) in the range of 18.5 and 35 kg/m^2 (inclusive) at screening. • 3. Meets the trial criteria for PPD as assessed by a trial psychiatrist or registered psychologist: • a. Diagnosis of Major Depressive Disorder without psychotic features, confirmed by the Mini-International Neuropsychiatric Interview (MINI), with peri-partum onset that began no earlier than gestation and no later than the first 4 weeks postpartum. • b. Has a Montgomery-Åsberg Depression Rating Scale (MADRS) total score of equal to or greater than 28 at screening and pre-dose on Day 0. • 6. […] Patients must have a negative pregnancy test at screening and on the pre-test day (Day −1). • 5. Is willing to delay start of other antidepressant or anxiety medication until after the end of the trial at Day 7 and agrees to keep any psychotherapy unchanged during the trial.

[2] = Pharmacokinetics after single dose via inhalation (LC-MS/MS); format: in vivo, human; conditions: after 3 hours; whole dose range 6, 12, 18 mg
[3] = test system: Escherichia coli (WP2 uvrA pKM101); test: Bacterial mutation test; format: cell-based; conditions: up to 5000 μg/plate; absence and presence of rat liver S-9
Method: (§1) These conditions included treatments at concentrations up to 5000 μg/plate (the maximum recommended concentration according to current regulatory guidelines), in the absence and in the presence of a rat liver metabolic activation system (S-9).

[4] = test system: Salmonella typhimurium (TA98, TA100, TA1535 and TA1537); test: Bacterial mutation test; format: cell-based; conditions: up to 5000 μg/plate; absence and presence of rat liver S-9
Method: as §1

Structure (SMILES): COc1ccc2[nH]cc(CCN(C)C)c2c1 [5-MeO-DMT]
- Inhalation-related adverse events [1]: no inhalation-related adverse events
- MADRS remission (MADRS total score equal or less than 10) [1]: fulfilled
- MADRS response (at least 50% improvement from baseline) [1]: fulfilled
- Reported adverse events (cramping left abdominal pain and headache, Day 0) [1]: mild, short-lasting and resolved spontaneously
- BIMF total score improvement ([1]; Day 7, from 92 to 105): 14%
- BIMF item 2 score: I feel rested ([1]; Day 7, Day 0 0): 2
- BIMF item 19 score: As time goes on, I am getting better at taking care of my baby ([1]; Day 7, Day 0 0): 1
- BIMF item 18 score: Anxiety or worry often interferes with my mothering ability ([1]; Day 7, Day 0 2): 5
- BIMF item 16 score: I worry about how other people judge me (as a mother) ([1]; Day 7, Day 0 3): 5
- BIMF item 13 score: I am taking good care of my physical needs (eating, showering, etc) ([1]; Day 7, Day 0 4): 5
- BIMF item 4 score: My baby and I understand each other ([1]; Day 7, Day 0 5): 5
- BIMF item 5 score: I am able to relax and enjoy time with my baby ([1]; Day 7, Day 0 5): 6
- BIMF item 9 score: I am getting enough encouragement from other people ([1]; Day 7, Day 0 5): 6
- BIMF item 10 score: I trust my own feelings (instincts) when it comes to taking care of my baby ([1]; Day 7, Day 0 5): 6
- BIMF item 11 score: I take a little time each week to do something for myself ([1]; Day 7, Day 0 5): 6
- BIMF item 15 score: My baby and I are getting into a routine ([1]; Day 7, Day 0 5): 6
- BIMF item 17 score: I am able to take care of my baby and my other responsibilities ([1]; Day 7, Day 0 5): 5
- BIMF item 1 score: I am a good mother ([1]; Day 7, Day 0 6): 6
- BIMF item 3 score: I am comfortable with the way I've chosen to feed my baby (either bottle or breast, or both) ([1]; Day 7, Day 0 6): 6
- BIMF item 6 score: There are people in my life that I can trust to care for my baby when I need a break ([1]; Day 7, Day 0 6): 6
- BIMF item 8 score: I am getting enough adult interaction ([1]; Day 7, Day 0 6): 6
- BIMF item 12 score: I am taking good care of my baby's physical needs (feedings, changing diapers, doctor's appointments) ([1]; Day 7, Day 0 6): 6
- BIMF item 14 score: I make good decisions about my baby's health and well being ([1]; Day 7, Day 0 6): 6
- BIMF item 20 score: I am satisfied with the job I am doing as a new mother ([1]; Day 7, Day 0 6): 5
- BIMF item 1 Δ (Day 7) ([1]; Day 7 vs Day 0): 0
- BIMF item 2 Δ (Day 7) ([1]; Day 7 vs Day 0): 2
- BIMF item 3 Δ (Day 7) ([1]; Day 7 vs Day 0): 0
- BIMF item 4 Δ (Day 7) ([1]; Day 7 vs Day 0): 0
- BIMF item 5 Δ (Day 7) ([1]; Day 7 vs Day 0): 1
- BIMF item 6 Δ (Day 7) ([1]; Day 7 vs Day 0): 0
- BIMF item 7 Δ (Day 7) ([1]; Day 7 vs Day 0): 0
- BIMF item 8 Δ (Day 7) ([1]; Day 7 vs Day 0): 0
- BIMF item 9 Δ (Day 7) ([1]; Day 7 vs Day 0): 1
- BIMF item 10 Δ (Day 7) ([1]; Day 7 vs Day 0): 1
- BIMF item 11 Δ (Day 7) ([1]; Day 7 vs Day 0): 1
- BIMF item 12 Δ (Day 7) ([1]; Day 7 vs Day 0): 0
- BIMF item 13 Δ (Day 7) ([1]; Day 7 vs Day 0): 1
- BIMF item 14 Δ (Day 7) ([1]; Day 7 vs Day 0): 0
- BIMF item 15 Δ (Day 7) ([1]; Day 7 vs Day 0): 1
- BIMF item 16 Δ (Day 7) ([1]; Day 7 vs Day 0): 2
- BIMF item 17 Δ (Day 7) ([1]; Day 7 vs Day 0): 0
- BIMF item 18 Δ (Day 7) ([1]; Day 7 vs Day 0): 3
- BIMF item 19 Δ (Day 7) ([1]; Day 7 vs Day 0): 1
- BIMF item 20 Δ (Day 7) ([1]; Day 7 vs Day 0): −1
- Time to clinical remission after administration ([1]; IDR 6 mg followed by 12 mg): ≤ 2 h
- Detectability in the plasma [2]: no longer detectable
- Induction of mutation [3]: did not induce mutation
- Induction of mutation [4]: did not induce mutation
